From the METLIN SMRT retention time set (Domingo-Almenara et al. 2019)

Experiment: gradient 5% acetonitrile 3 min, to 50% in 2 min, to 85% in 15 min, held 3 min, 100 µL/min
Conditions: column: Zorbax Extend-C18 2.1 x 50 mm; eluents: water / acetonitrile, 0.1% formic acid
How it was run: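 In both positive and negative ionization mode, a quadrupole time-of-flight mass spectrometer coupled to HPLC analyzed pure standards run in mixtures of ~100 molecules. The Zorbax Extend-C18 column (2.1 × 50 mm, 1.8 μm) was operated at 100 μL/min with water and acetonitrile, each containing 0.1% formic acid. The dead volume was 40 μL and the dwell volume 900 μL. Retention time came from adduct peaks that were computationally picked and individually inspected by hand.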

SMILES	RP-LC retention time
O=C1Nc2ccc(Br)cc2/C1=C/C(=O)c1ccccc1	964 s
COCC(=O)N(CC(=O)N1CCc2sccc2C1COc1cccc(OC)c1)C1CC1 (centres undefined)	800 s
CC(C)CC(=O)N1CC(F)(F)C[C@H]1c1nnc(-c2cnccn2)o1	703 s
CCC(C)NC(=O)N1CCN(c2cc(-c3cccc(F)c3)ncn2)CC1 (centres undefined)	650 s
O=C(Cn1cccc(-c2nc(-c3ccc(F)cc3)no2)c1=O)NCC1CCCO1 (centres undefined)	706 s
Cc1cc(F)cc2c(=O)c3c([nH]c12)CCN(CC(=O)Nc1cccc(Cl)c1)C3	646 s
COc1cc(NC(=O)C2CCCN(c3cnc4nccnc4c3)C2)cc(OC)c1 (centres undefined)	712 s
O=C(CC1OC(=O)c2ccccc21)c1ccc(Br)cc1 (centres undefined)	905 s
Cc1ccc(N2CC(c3noc(-c4ccc(Cl)cc4)n3)CC2=O)cc1 (centres undefined)	1110 s
O=C(NCc1ccc(Cl)cc1)C1CC(=O)N(CCc2c[nH]c3ccc(F)cc23)C1 (centres undefined)	802 s
CCc1nc(NC(=O)C2CC(=O)N(c3n[nH]c4cccc(F)c34)C2)sc1C (centres undefined)	740 s
CCN(Cc1ccc(OC)cc1)Cc1cc(=O)c2cc(F)ccc2[nH]1	613 s
O=c1c2cc(-c3ccc(F)cc3)nn2ccn1Cc1nc(-c2cccc(F)c2)no1	1060 s
CCN1C(=O)c2cccnc2Sc2cc(CNC(=O)c3ccn(CC)n3)ccc21	697 s
CCN1C(=O)c2cc(S(=O)(=O)NCc3cccc(Cl)c3)ccc2Oc2cccnc21	1030 s
Cc1ccc(C)c(NC(=O)N2CCC(c3cc(N)on3)CC2)c1	698 s
Cc1ccc(-c2nnc(Cc3nc(-c4cccc(C(F)(F)F)c4)no3)o2)cc1	1160 s
CN1CCc2nnc(C3CCCN3C(=O)Nc3ccc(Cl)cc3C(F)(F)F)n2CC1 (centres undefined)	594 s
CCOc1ccc(CC(=O)OCn2nnc3ccccc3c2=O)cc1	914 s

SMILES	RP-LC retention time
CCOCCCNC(=O)N1CCN(c2nc3ccccc3n(Cc3ccc(C)cc3)c2=O)CC1	1010 s
CSc1ccc(-c2noc(Cn3cnc4c(cnn4-c4ccc(C)c(Cl)c4)c3=O)n2)cc1	1270 s
COc1ccc(Cl)c2c(=O)c3c([nH]c12)CCN(CC(=O)Nc1ccccc1F)C3	604 s
O=C(CN1CC=C(c2cnn(-c3ccc(F)cc3)c2)CC1)NCc1ccco1	658 s
CCn1cc(C)c(C(=O)O)c1CC(=O)N(C)Cc1ccccc1	772 s
Cc1cc(=O)n(CC(=O)Nc2ccc(F)c(F)c2)c(N2CCCC2)n1	671 s
Cc1ccc(F)c(NC(=O)C2CC(=O)N(c3ccc4oc(C)nc4c3)C2)c1 (centres undefined)	753 s
COc1ccc(-n2ncc3c(=O)n(Cc4nc(-c5ccc(C)c(C)c5)no4)cnc32)cc1	1080 s
CCOC(=O)CNC(=O)N1CCN(Cc2nc3cccnc3n2-c2ccc(C)cc2)CC1	611 s
CC(C)Oc1ccc(CNC(=O)C2CCN(c3cnc4nccnc4c3)CC2)cc1	683 s
COc1ccc2c(c1)C1(CCN(C(=O)Cc3ccc(C)cc3)C1)C(=O)N2C (centres undefined)	854 s
Cc1cc(-c2nnc(SCC(N)=O)o2)c(C)o1	625 s
O=C(Cc1nnc(-c2ccc3ncccc3c2)o1)Nc1ccc(Cl)cc1	760 s
Cc1ccc(S(=O)(=O)NCCc2cn(CC(C)C)c3ncccc23)cc1Cl	1070 s
CCC(C(=O)NCc1cccnc1)n1c2ccccc2c2cnn(C)c(=O)c21 (centres undefined)	615 s
COc1cc(NC(=O)NCC(c2cccnc2)c2c[nH]c3ccccc23)cc(OC)c1OC (centres undefined)	631 s
COc1ccc(Cn2c(=O)c3sccc3n(Cc3nc(-c4ccc(F)c(Cl)c4)no3)c2=O)cc1	1190 s
CCCNc1cc(N2CCCC(CCC(=O)N3CCN(CC(C)C)CC3)C2)ncn1 (centres undefined)	552 s
Cc1ccc(CNC(=O)C2(C)CN(S(C)(=O)=O)CC(=O)N2c2ccc(F)cc2F)cc1 (centres undefined)	814 s

SMILES	RP-LC retention time
CCn1nccc1-c1cccc(-c2noc(CNC(=O)Cc3ccccc3)n2)c1	855 s
CCCNC(=O)c1ncn2c1C(=O)N(C1CC1)C(C)(C(=O)NCc1ccc(F)cc1)C2 (centres undefined)	692 s
CCC1CCCCN1Cc1nc(Cn2ccn3nc(-c4ccc(C)cc4)cc3c2=O)no1 (centres undefined)	726 s
Cc1noc(C)c1CCC(=O)Nc1nnc(-c2ccsc2)o1	628 s
Cc1cccc(Nc2c(-c3ccc(Cl)cc3)nc3cnccn23)c1C	1110 s
COc1ccc(C)cc1N(C)C(=O)Cn1ccc2c(=O)n(C)c(=O)n(C)c21	714 s
CCCn1c(=O)c(C)nc2cc(-c3noc(-c4cc(OC)c(OC)c(OC)c4)n3)ccc21	1110 s
Cc1nnc(SCCC(=O)Nc2ccc(F)cc2)s1	692 s
CCC(C)NC(=O)c1cnn(-c2ccc(-c3nc(C(C)(C)C)no3)cn2)c1C (centres undefined)	1050 s
O=C1CSC(c2ccccc2Cl)c2cc(Cl)ccc2N1 (centres undefined)	987 s
O=C(NCCc1cccs1)c1cc2n(n1)CCCN(Cc1ccc(F)cc1)C2=O	868 s
CC(=O)Nc1cccc(N2CC(C(=O)NCc3cccc(Br)c3)CC2=O)c1 (centres undefined)	703 s
O=C(NCCOc1ccc(F)cc1)c1cc(-c2cccs2)n(C2CCS(=O)(=O)C2)n1 (centres undefined)	793 s
c1cncc(-c2nc(-c3ccc(OC4CN(Cc5ccsc5)C4)cc3)no2)c1	693 s
CCOC(=O)c1ccc(NC(=O)c2c(OC)cc(=O)n3c2CCCC3)cc1	718 s
CC(Oc1ccccc1F)C(=O)Nc1ccc(-c2nc(-c3ccc(F)cc3)no2)cc1 (centres undefined)	1260 s
CCN1C(=O)COc2ccc(-c3noc(-c4cc(C)cc(C)c4)n3)cc21	1330 s
COCCc1noc(C2CN(C(=O)C(C)C)C2)n1	621 s

The next lines start with the values.

RP-LC retention time	SMILES
840 s	O=C(C1CN(S(=O)(=O)c2ccccc2)CC12CCCCC2)N1CCOCC1 (centres undefined)
951 s	Cn1c(=O)c(N2CCN(C(=O)C3(c4ccccc4)CC3)CC2)nc2ccccc21
638 s	CC(C)(C)C(=O)N1CCC(OC2CCN(Cc3ccccc3)CC2)CC1
647 s	Cc1sc2ccn(C)c(=O)c2c1C(=O)NCc1ccc(N2CCOCC2)cc1
567 s	CN1CCN(c2ncc3c(=O)n(CC4CCCO4)ccc3n2)CC1 (centres undefined)
623 s	O=C(c1ccc(Oc2ccccc2)cc1)N1CC(c2nc3ccccc3[nH]2)C1
948 s	CC1(C(=O)NCc2cccc(F)c2)CCCN(S(=O)(=O)c2ccc(F)cc2)C1 (centres undefined)
854 s	CCOc1ccccc1NC(=O)N1CCCC1c1cc(C)no1 (centres undefined)
820 s	Cc1nn(CC(=O)N2CCc3ccccc3C2)c(=O)c2nn(-c3ccccc3)c(C)c12
562 s	COc1cccc(CN2CCC3(CC2)CN(c2ncccn2)CC3CO)n1 (centres undefined)
735 s	COc1ncc(C(=O)N2CCN(c3ccc(F)cc3)CC2)cn1
647 s	COC(=O)c1ccc(NC(=O)Cn2nc3n(c2=O)CCCC3)cc1
603 s	COCC(=O)Nc1ccc(N2CCN(C3CCCCC3)CC2)cc1C(=O)O
759 s	Cc1cccc(N2CCN(C(=O)c3ccc(CN4CCN(C(C)C)C(=O)C4=O)cc3)CC2)c1
1040 s	CCc1ccc(S(=O)(=O)N2CCc3c(c(-c4nnc(-c5ccccc5F)o4)nn3C)C2)cc1
706 s	O=C(c1ccccc1F)N1CCC(CNC(=O)C2(c3ccccc3)CCOCC2)CC1
732 s	COc1ccc(NC(=O)N2C[C@@H](F)C[C@H]2C(=O)N2CCc3ccccc3C2)cc1OC

RP-LC retention time	SMILES
812 s	Cc1nn(-c2ccccc2)c(C)c1S(=O)(=O)N1CCC(C(=O)NCCc2ccccc2)CC1
756 s	Cc1cc(=O)n(CC(=O)NCc2ccc(F)cc2F)c(N2CCOCC2)n1
591 s	CN1C(=O)c2cccn2CC1CNC(=O)c1ccnn1C (centres undefined)
786 s	CC(C)Cc1ccc(S(=O)(=O)N2CCC3(CC2)CCC(O)(CN2CCCC2)CC3)cc1
855 s	CCSc1nnc(NC(=O)C2CCC(=O)N2S(=O)(=O)c2ccc(C)cc2)s1 (centres undefined)
794 s	CC(C)N1CCn2cc(S(=O)(=O)Nc3cc(F)cc(F)c3)cc2C1=O
604 s	Cc1ncsc1CN1CCc2nn(Cc3ccccc3)c(=O)n2CC1
789 s	O=C(O)c1ccc2c(c1)N(S(=O)(=O)c1ccccc1F)CC2
633 s	O=C1COc2ccc(C(=O)N3CCCCC3)cc2N1
785 s	Cc1ccccc1C(=O)N1CCN(S(=O)(=O)c2cc3c4c(c2)CCC(=O)N4CCC3)CC1
635 s	Cc1nc(-c2ccc(C(=O)N3CCOCC3)cc2)no1
1190 s	O=C(NCc1ccccc1C(F)(F)F)c1ccnc(N2CCCCC2)n1
949 s	COc1cc(NC(=O)C2CCCN(S(=O)(=O)c3cc(-c4noc(C)n4)cs3)C2)cc(OC)c1 (centres undefined)
1170 s	COC1CN(c2cccc(F)c2)C12CCN(S(=O)(=O)Cc1ccccc1F)CC2 (centres undefined)
808 s	Cc1cc2c(cc1S(=O)(=O)NC(C)C)N(C(=O)C1CC1)CC2
798 s	O=S(=O)(c1cccnc1)N1CC(n2cc(COc3ccc(F)cc3)nn2)C1
